Reference: US20110190269A1, “GAMMA SECRETASE MODULATORS” (priority 2010, published 2011)

Test system: γ-secretase
Assay: Cellular γ-secretase assay (inhibition of Aβ42 secretion)
Format: cell-based
Details: human neuroglioma H4 cells overexpressing human APP, 22 hrs incubation
Protocol: Human neuroglioma H4 cells overexpressing human APP were plated at 30,000 cells/well/[…] in 96-well plates in IMDM media containing 10% FCS, […] Hygromycin B and incubated for 2 h at 37° C., 5% CO2 prior to adding test compounds.
Compounds for testing were dissolved in 100% Me2SO yielding in a 10 mM stock solution. Typically […] of these solutions were further diluted in 1000 μl of IMDM media (w/o FCS). Subsequent 1:1 dilutions gave a ten point dose response curve. 100 μl of each dilution was added to the cells in 96-well plates. Appropriate controls using vehicle only and reference compound were applied to this assay. The final concentration of Me2S0 was 0.4%.
After incubation for 22 hrs at 37° C., 5% CO2, 50 μl supernatant was transferred into round-bottom 96-well polypropylene plates for detection of Aβ42. 50 μl assay buffer (50 mM Tris/Cl, pH 7.4, 60 mM NaCl, 0.5% BSA, 1% TWEEN 20) was added to the wells followed by the addition of 100 μl of detection antibody (ruthenylated BAP15 0.0625 μg/ml in assay buffer). 50 μl of a premix of capture antibody (biotinylated 6E10 antibody, 1 μg/ml) and Steptavidin-coated magnetic beads (Dynal M-280, 0.125 mg/ml) were preincubated for 1 hr at room temperature before adding the assay plates. Assay plates were incubated on a shaker for 3 hrs at room temperature and finally read in the Bioveris M8 Analyser according to the manufacturer's instructions (Bioveris).
IC50 values for inhibition of Aβ42 secretion were calculated by nonlinear regression fit analysis using XLfit 4.0 software (IDBS).

SMILES	EC50 [nM]
COc1cc(Nc2nc3n(n2)CCCC3c2ccc(F)cc2)ccc1-n1cnc(C)c1 (racemic) [Example 1, [8-(4-Fluoro-phenyl)-5,6,7,8-tetrahydro-[1,2,4]triazolo[1,5-a]pyridin-2-yl]-[3-methoxy-4-(4-methyl-imidazol-1-yl)-phenyl]-amine]	330
COc1cc(Nc2nc3n(n2)C(c2ccc(F)cc2)CCC3)ccc1-n1cnc(C)c1 (centres unmarked) [Example 2, [5-(4-Fluoro-phenyl)-5,6,7,8-tetrahydro-[1,2,4]triazolo[1,5-a]pyridin-2-yl]-[3-methoxy-4-(4-methyl-imidazol-1-yl)-phenyl]-amine]	320
COc1cccn2nc(Nc3ccc(-n4cnc(C)c4)c(C#N)c3)nc12 [Example 3, 5-(8-Methoxy-[1,2,4]triazolo[1,5-a]pyridin-2-ylamino)-2-(4-methyl-imidazol-1-yl)-benzonitrile]	3350
CCCc1nc(C)cc2nc(Nc3ccc(-n4cnc(C)c4)c(C#N)c3)nn12 [Example 4, 2-(4-Methyl-imidazol-1-yl)-5-(7-methyl-5-propyl-[1,2,4]triazolo[1,5-c]pyrimidin-2-ylamino)-benzonitrile]	1280
COc1ccc(-c2ccccc2)n2nc(Nc3ccc(-n4cnc(C)c4)c(C#N)c3)nc12 [Example 5, 5-(8-Methoxy-5-phenyl-[1,2,4]triazolo[1,5-a]pyridin-2-ylamino)-2-(4-methyl-imidazol-1-yl)-benzonitrile]	90
COc1cc(Nc2nc3cccc(-c4ccccc4)n3n2)ccc1-n1cnc(C)c1 [Example 6, [3-Methoxy-4-(4-methyl-imidazol-1-yl)-phenyl]-(5-phenyl-[1,2,4]triazolo[1,5-a]pyridin-2-yl)-amine]	120
COc1cc(Nc2nc3c(OC)cccn3n2)ccc1-n1cnc(C)c1 [Example 7, [3-Methoxy-4-(4-methyl-imidazol-1-yl)-phenyl]-(8-methoxy-[1,2,4]triazolo[1,5-a]pyridin-2-yl)-amine]	930
COc1cc(Nc2nc3cccc(-c4ccc(F)cc4)n3n2)ccc1-n1cnc(C)c1 [Example 8, [5-(4-Fluoro-phenyl)-[1,2,4]triazolo[1,5-a]pyridin-2-yl]-[3-methoxy-4-(4-methyl-imidazol-1-yl)-phenyl]-amine]	50
COc1cc(Nc2nc3cncc(-c4ccc(F)cc4)n3n2)ccc1-n1cnc(C)c1 [Example 9, [5-(4-Fluoro-phenyl)-[1,2,4]triazolo[1,5-a]pyrazin-2-yl]-[3-methoxy-4-(4-methyl-imidazol-1-yl)-phenyl]-amine]	200
COc1cc(Nc2nc3c(-c4ccc(F)cc4)cccn3n2)ccc1-n1cnc(C)c1 [Example 10, [8-(4-Fluoro-phenyl)-[1,2,4]triazolo[1,5-a]pyridin-2-yl]-[3-methoxy-4-(4-methyl-imidazol-1-yl)-phenyl]-amine]	60
COc1cc(Nc2nc3c(-c4ccc(F)cc4)nccn3n2)ccc1-n1cnc(C)c1 [Example 11, [8-(4-Fluoro-phenyl)-[1,2,4]triazolo[1,5-a]pyrazin-2-yl]-[3-methoxy-4-(4-methyl-imidazol-1-yl)-phenyl]-amine]	580
COc1cc(Nc2nc3cccc(N4CCCC4)n3n2)ccc1-n1cnc(C)c1 [Example 12, [3-Methoxy-4-(4-methyl-imidazol-1-yl)-phenyl]-(5-pyrrolidin-1-yl-[1,2,4]triazolo[1,5-a]pyridin-2-yl)-amine]	400
COc1cc(Nc2nc3cncc(-c4ccccc4)n3n2)ccc1-n1cnc(C)c1 [Example 13, [3-Methoxy-4-(4-methyl-imidazol-1-yl)-phenyl]-(5-phenyl-[1,2,4]triazolo[1,5-a]pyrazin-2-yl)-amine]	100
COc1cc(Nc2nc3cc(C)cc(C)n3n2)ccc1-n1cnc(C)c1 [Example 14, (5,7-Dimethyl-[1,2,4]triazolo[1,5-a]pyridin-2-yl)-[3-methoxy-4-(4-methyl-imidazol-1-yl)-phenyl]-amine]	679
COc1cc(Nc2nc3nc(C)cc(C(C)(C)C)n3n2)ccc1-n1cnc(C)c1 [Example 15, (7-tert-Butyl-5-methyl-[1,2,4]triazolo[1,5-a]pyrimidin-2-yl)-[3-methoxy-4-(4-methyl-imidazol-1-yl)-phenyl]-amine acetate]	572
CCCc1cccc2nc(Nc3ccc(-n4cnc(C)c4)c(OC)c3)nn12 [Example 16, [3-Methoxy-4-(4-methyl-imidazol-1-yl)-phenyl]-(5-propyl-[1,2,4]triazolo[1,5-a]pyridin-2-yl)-amine]	197
COc1cc(Nc2nc3cccc(C(F)(F)F)n3n2)ccc1-n1cnc(C)c1 [Example 17, [3-Methoxy-4-(4-methyl-imidazol-1-yl)-phenyl]-(5-trifluoromethyl-[1,2,4]triazolo[1,5-a]pyridin-2-yl)-amine]	285
COc1cc(Nc2nc3nc(C)cc(-c4ccccc4)n3n2)ccc1-n1cnc(C)c1 [Example 18, [3-Methoxy-4-(4-methyl-imidazol-1-yl)-phenyl]-(5-methyl-7-phenyl-[1,2,4]triazolo[1,5-a]pyrimidin-2-yl)-amine acetate]	129
COC(=O)c1cc(-c2cccc(OC(F)F)c2)n2nc(Nc3ccc(-n4cnc(C)c4)c(OC)c3)nc2n1 [Example 19, 7-(3-Difluoromethoxy-phenyl)-2-[3-methoxy-4-(4-methyl-imidazol-1-yl)-phenylamino]-[1,2,4]triazolo[1,5-a]pyrimidine-5-carboxylic acid methyl ester acetate]	953

Other lines, results leading:

EC50 [nM]	SMILES
440	COc1cc(Nc2nc3n(n2)CCCC3c2ccc(F)cc2)ccc1-n1cnc(C)c1 (single isomer, unassigned) [Example 51]
280	COc1cc(Nc2nc3n(n2)CCCC3c2ccc(F)cc2)ccc1-n1cnc(C)c1 (single isomer, unassigned) [Example 52]
107	COc1cc(Nc2nc3nc(C(F)(F)F)cc(-c4ccc(Cl)cc4)n3n2)ccc1-n1cnc(C)c1 [Example 20, [7-(4-Chloro-phenyl)-5-trifluoromethyl-[1,2,4]triazolo[1,5-a]pyrimidin-2-yl]-[3-methoxy-4-(4-methyl-imidazol-1-yl)-phenyl]-amine acetate]
201	COc1cc(Nc2nc3nc4c(c(-c5ccccc5)n3n2)CCCC4)ccc1-n1cnc(C)c1 [Example 21, [3-Methoxy-4-(4-methyl-imidazol-1-yl)-phenyl]-(9-phenyl-5,6,7,8-tetrahydro-[1,2,4]triazolo[5,1-b]quinazolin-2-yl)-amine acetate]
74	COc1cc(Nc2nc3c(OC)ccc(-c4ccc(F)cc4)n3n2)ccc1-n1cnc(C)c1 [Example 22, [5-(4-Fluoro-phenyl)-8-methoxy-[1,2,4]triazolo[1,5-a]pyridin-2-yl]-[3-methoxy-4-(4-methyl-imidazol-1-yl)-phenyl]-amine]
191	COc1cc(Nc2nc3nccc(-c4ccc(OC(F)(F)F)cc4)n3n2)ccc1-n1cnc(C)c1 [Example 23, [3-Methoxy-4-(4-methyl-imidazol-1-yl)-phenyl]-[7-(4-trifluoromethoxy-phenyl)-[1,2,4]triazolo[1,5-a]pyrimidin-2-yl]-amine acetate]
592	COc1cc(Nc2nc3nc(C(F)(F)F)cc(-c4ccco4)n3n2)ccc1-n1cnc(C)c1 [Example 24, (7-Furan-2-yl-5-trifluoromethyl-[1,2,4]triazolo[1,5-a]pyrimidin-2-yl)-[3-methoxy-4-(4-methyl-imidazol-1-yl)-phenyl]-amine]
601	COc1cc(Nc2nc3nc(C(C)C)cc(C(C)C)n3n2)ccc1-n1cnc(C)c1 [Example 25, (5,7-Diisopropyl-[1,2,4]triazolo[1,5-a]pyrimidin-2-yl)-[3-methoxy-4-(4-methyl-imidazol-1-yl)-phenyl]-amine acetate]
312	COc1cc(Nc2nc3nc(C(F)(F)F)cc(C(F)(F)F)n3n2)ccc1-n1cnc(C)c1 [Example 26, (5,7-Bis-trifluoromethyl-[1,2,4]triazolo[1,5-a]pyrimidin-2-yl)-[3-methoxy-4-(4-methyl-imidazol-1-yl)-phenyl]-amine]
742	COCc1cnc(-c2ccccc2)n2nc(Nc3ccc(-n4cnc(C)c4)c(OC)c3)nc12 [Example 27, [3-Methoxy-4-(4-methyl-imidazol-1-yl)-phenyl]-(8-methoxymethyl-5-phenyl-[1,2,4]triazolo[1,5-c]pyrimidin-2-yl)-amine]
1490	COCc1cnc(C2CCCCC2)n2nc(Nc3ccc(-n4cnc(C)c4)c(OC)c3)nc12 [Example 28, (5-Cyclohexyl-8-methoxymethyl-[1,2,4]triazolo[1,5-c]pyrimidin-2-yl)-[3-methoxy-4-(4-methyl-imidazol-1-yl)-phenyl]-amine]
1270	COc1cc(Nc2nc3c(CN4CCOCC4)cnc(-c4ccccc4)n3n2)ccc1-n1cnc(C)c1 [Example 29, [3-Methoxy-4-(4-methyl-imidazol-1-yl)-phenyl]-(8-morpholin-4-ylmethyl-5-phenyl-[1,2,4]triazolo[1,5-c]pyrimidin-2-yl)-amine]
247	COc1cc(Nc2nc3cccc(N4CCOCC4)n3n2)ccc1-n1cnc(C)c1 [Example 30, [3-Methoxy-4-(4-methyl-imidazol-1-yl)-phenyl]-(5-morpholin-4-yl-[1,2,4]triazolo[1,5-a]pyridin-2-yl)-amine]
